Measurements: patent US20250255876A1, “COMPOSITIONS AND METHODS FOR CANCER TREATMENT” (ARIEL SCIENTIFIC INNOVATIONS LTD., priority 2021, published 2025)
Entries after “also recorded” stand apart in the source; their conditions may differ.

Legend:
B16F10 cells [1] = experiment: Colony survival assay, B16F10 cells; assay type: cell-based, mouse
Protocol: (14B) Colony survival assay of H1975 cell line. (14C) Colony survival assay of A549 cell line. (14D) Colony survival assay of B16F10 cell line. All cell lines were treated with 50 μM c #3 and the indicated concentration of cisplatin for 48 h, then growth media was replaced with normal growth media with no compound. Cells were allowed to recover 4-5 days before staining. For all cell lines, colony survival assay n=3 independent experiments, SD=1. P value was calculated by two-way ANOVA multiple comparison. IC50 was calculated using linear regression for H1975 and A549, and sigmoidal regression for B16F10.
Colony survival assay to compare the relative survival rate of cells treated with cisplatin alone, or with combined treatment of cisplatin and 50 μM of compound 3 (see FIG. 1). Molecule presented preliminary promising results, We tested compound 3 (c #3) on different cancer cell lines: two lung cancer cell lines, (1) human non-small cell lung carcinoma H1975 cells, (2) epithelial lung adenocarcinoma A549 cells, and (3) mouse aggressive melanoma B16F10 cells.

[2] = system: γH2AX foci in B16F10 cells; experiment: γH2AX foci immunofluorescence, B16F10 cells; assay type: cell-based, mouse
Protocol: FIGS. 15A-15B3 present micrographs and graphs showing that c #3 increases DNA damage after combined treatment. (15A). Representative figures of TH2AX in A549 cells (left panel), H1975 (middle panel) and B16F10 (right panel) with different treatments as indicated. Quantification of A549 (15B1), H1975(15B2), and B16F10 cells(15B3)′ foci/cell in each treatment. The total number of cells scored is indicated. Error bars=1 SD, P-value was calculated by two-tailed t-test. In all experiments, A549 cells were treated with 10 μM cisplatin and H1975 and B16F10 cells with 5 μM cisplatin. All cell lines were co-treated with 50 μM of c #3. Cells were co-treated for 16 h before analysis.SD=1, The P-value was calculated using a one-tailed t-test.
Combined treatment of cisplatin with c #3 correlates with an increase in DNA damage. Levels of γ-H2AX foci, a marker for DNA double-strand breaks, were compared in H1975, A549 and B16F10 cell lines.

B16F10 cells [3] = experiment: B16F10 subcutaneous tumor in C57BL mice, intratumoral injection; assay type: in vivo, mouse
Protocol: FIGS. 17A-17E are micrographs and graphs showing that C#3 prevents tumor growth. 2*106 B16F10 cells were injected to the left flank of C57BL mice. After three days different treatments, as indicated, were injected to the newly formed tumor. (17A) tumor size (mm3) was measured daily for each mouse. In the co-treatment, almost no change in tumor size was observed, in the first three days. (17B) representative images of three tumors from each treatment group. (17C) For each treatment the fold-change in the volume of each day was compared to day 0. […] (17D) The co-treated group presented less developed tumors, which comprised about 2-3% of mice weight. (17E) H&E staining of a representative tumor from each group. Number of mice for each group in this experiment: DMSO n=7, cisplatin n=10, cisplatin+c #3 n=10, c #3 n=9. SD=1. P-values were calculated by one-tailed t-test. C#3 prevents tumor growth. To test the effect of c #3 in-vivo, we used a […] mouse model of C57BL mice. B16F10 cells were injected to the mouse's left flank and allowed to form a subcutaneous tumor. Next, we injected directly to the tumor DMSO, cisplatin, cisplatin+c #3 1 mg/kg, or c #3 alone, and tumor size was measured each day, up to 6 days. […] DNA damage burden in these fast-growing tumors is high, and TLS inhibition using c #3 prevents repair and enhances cell death. […]

Cc1oc(-c2ccco2)nc1CC(=O)N[C@@H](C(=O)O)c1ccccc1 [Compound 3]
toxicity, compound alone (B16F10 cells [1]; B16F10, 50 μM compound alone): caused no toxicity | sensitization to cisplatin (B16F10 cells [1]; B16F10, cisplatin + 50 μM c #3, 48 h): sensitization to cisplatin treatment | increase in γ-H2AX foci/cell in co-treated cells ([2]; B16F10, 5 μM cisplatin + 50 μM c #3, 16 h): 2 fold | γ-H2AX signal, c #3 alone ([2]; B16F10, c #3 alone): no effect on the γ-H2AX signal | tumor growth (tumor volume, fold-change), co-treatment (B16F10 cells [3]; cisplatin 1 mg/kg + c #3 1 mg/kg injected into the tumor, listed as c #3): prevented tumor growth in the first three days; also recorded: significant growth inhibition when compared to all treatments | tumor histopathology (H&E), co-treatment (B16F10 cells [3]; cisplatin + c #3 co-treated, two tumors from each group): severe necrosis
